Values quoted from earlier work in article PMC11542186, “Pin1 WW Domain Ligand Library Synthesized with an Easy Solid-Phase Phosphorylating Reagent” (Biochemistry, 2024).
Where a SMILES comes first, the peptide text is derived from it. [ ]: non-standard residue; d: D form. pT = C[C@@H](OP(=O)(O)O)[C@H](N)C(=O)O

Biological target: isolated Pin1 WW domain
Set-up: method as in PMID 16033261
Conditions: measured by NMR for the isolated Pin1 WW domain; cited from earlier work

CC(=O)N[C@H](C(=O)N1CCC[C@H]1C(N)=O)[C@@H](C)OP(=O)(O)O [Ac–pThr–Pro–NH2] (Ac-[pT]-Pro-NH2)
Kd: 150 µM
